The values below come from US10227373B2 (priority 2014, dated 2019).

Data set [1] relates to Vaccinia.
For data set [2], the system named is Dengue.
Data set [3] deals with S-adenosylhomocysteine hydrolase (SAHase) (Oryctolagus cuniculus, UniProt A0A5F9DS62). Kind of data set: SAHase inhibition (release of free homocysteine). As to conditions: SAHase from rabbit erythrocytes; read-out: IC50 versus SAHase. It is filed as biochemical.
The test system of data set [4] is Ebola virus.
A short description of data set [5]: in vitro. The note with it: human.
Another data set has as its system measles virus. Kind of data set: microbe, parasite or virus in culture. In kind it is cell-based. The note with it: Measles morbillivirus, Vero 76, read-out: drug concentration to reduce viral replication (EC50).
For data set [6], the system named is Ebola virus. Nature of the data set: microbe, parasite or virus in culture. The note with it: Zaire ebolavirus, read-out: EC50 (IC50).
Data set [7] can be described thus: in vitro. As to conditions: human. This is another data set of the same source.
For the next data set, the system named is Ebola (Zaire). Kind of data set: microbe, parasite or virus in culture. The note with it: Zaire ebolavirus, Vero. In kind it is cell-based.
Another data set deals with NOV. Kind of data set: microbe, parasite or virus in culture. It is filed as cell-based. The note with it: Norovirus, HG23.
In another data set the test system is HBV. Nature of the data set: microbe, parasite or virus in culture. In kind it is cell-based, hepatitis B virus.
For data set [8], the system named is Dengue. Kind of data set: microbe, parasite or virus in culture. It is filed as cell-based.
In a further data set the test system is Measles. Nature of the data set: microbe, parasite or virus in culture. As to conditions: Measles morbillivirus, Vero 76. It is filed as cell-based.
A short description of data set [9]: in vitro. The note with it: human. The source holds these as a separate data set.
A short description of data set [10]: in vitro. The note with it: African green monkey.
The next data set has as its system HCMV. Kind of data set: microbe, parasite or virus in culture. It is filed as cell-based, human cytomegalovirus. The note with it: Human betaherpesvirus 5, HFF.
Data set [11] relates to Vaccinia. Kind of data set: microbe, parasite or virus in culture. In kind it is cell-based, vaccinia virus.
The nature of data set [12]: in vitro. As to conditions: human. The source holds these as a separate data set.

“And” between values parts separate entries of the source, which are not always exact repeats. Equal entries are not always repeated. Where two headings read alike, the source gives them in different places. Marks after values point to notes of the source that are not given here.

Chain of S-adenosylhomocysteine hydrolase (SAHase) (A0A5F9DS62 1-428): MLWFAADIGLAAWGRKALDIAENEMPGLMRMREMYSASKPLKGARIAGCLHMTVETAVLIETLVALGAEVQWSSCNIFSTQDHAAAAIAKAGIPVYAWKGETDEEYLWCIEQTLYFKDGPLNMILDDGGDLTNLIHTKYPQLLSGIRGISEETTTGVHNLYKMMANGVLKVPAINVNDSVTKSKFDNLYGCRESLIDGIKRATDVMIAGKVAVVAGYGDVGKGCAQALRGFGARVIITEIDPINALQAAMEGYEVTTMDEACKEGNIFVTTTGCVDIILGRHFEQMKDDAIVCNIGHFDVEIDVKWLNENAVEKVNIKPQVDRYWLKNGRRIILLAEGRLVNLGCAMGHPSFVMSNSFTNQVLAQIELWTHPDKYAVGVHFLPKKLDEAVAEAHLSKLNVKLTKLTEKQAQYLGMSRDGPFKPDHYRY

Regarding `Nc1ncc(Br)c2c1ncn2[C@@H]1C[C@H](CO)[C@@H](O)[C@H]1O` [3-Bromo-3-deazaaristeromycin], the “SI (CC50/EC50)” value was over 1.3 in the data set with Vaccinia [1]; 5 in the data set with Rift Valley Fever; over 340 with Influenza B; 2 in the data set with Dengue [2]; 7.9 in the data set with Tacaribe; over 260 with Flu A (H5N1). For the same compound, the “SI (CC50/EC50)” value with Flu A (H1N1) and with Flu A (H3N2) was 0 each time. Further, the EC50 is 0.84 µM with Influenza B, 1.14 µM in the data set with Flu A (H5N1), over 290 µM in the data set with Flu A (H1N1) and over 290 µM in the data set with Flu A (H3N2). In the data set on MDCK cells, this compound came in with a CC50 of over 290 µM.
Take `Nc1ncc(Br)c2c1ncn2[C@@H]1C=C(CO)[C@@H](O)[C@H]1O` [3-Bromo-3-deazaneplanocin]: the IC50 – broadly, the concentration that gives 50% inhibition – in data set [3] amounted to 0.0027 µM. Also, the “SI (CC50/EC50)” value is 250 with Rift Valley Fever; 140 in the data set with Punta Toro; under 7 with Influenza B; 470 with Feline herpes; 57 in the data set with Dengue [2]; 160 with Junin. Moreover, the “SI (CC50/EC50)” value in the data set on Pichinde is 24; in the data set with Epstein Barr it was under 4.3; in the data set with Tacaribe, over 2000; in the data set on Flu A (H5N1), over 310; in the data set with Flu A (H1N1), over 2345; in the data set on Flu A (H3N2), over 190. Also, the EC50 in the data set on Influenza B is over 0.16 µM; in the data set with Ebola, 3.3 µM; with Flu A (H5N1), 0.94 µM; in the data set with Marburg it was 0.009 µM; in the data set with Flu A (H1N1) it was under 0.094 µM; in the data set with Flu A (H3N2), 1.55 µM. Also, the CC50/EC50 was determined as 3 in the data set on Ebola and 1100 with Marburg. Further, the CC50 in the data set on CRFK cells was 94^b; with Akata cells, 0.13^b. Moreover, the “MCC (minimum concentration causing microscopically detectable alteration of normal cell morphology)” value in the data set on Vero cells is recorded as >100^d.
Turning to `Nc1nccc2c1ncn2[C@@H]1C[C@@H](CO)[C@H](O)[C@@H]1O` [carbocyclic 3-deazaadenosine, reference compound], the “EC90 (IC90; concentration inhibiting viral replication by 90%)” value in the data set with Ebola virus [4] was > 126.5 µM and 240.3 µM.
The compound `Nc1nccc2c1ncn2C1=C[C@H](CO)[C@@H](O)[C@H]1O` [“D”-3-Deazaisoneplanocin, D-1′,6′-iso-3-deazaneplanocin] yielded a CC50 in “in vitro [5]” of over 100 µM. Further, in the data set on measles virus, the EC50 is under 0.1 µg/mL. For the same compound, in the data set with Ebola virus [4], the CC50/EC50 was over 313 µM and the “EC90 (IC90; concentration inhibiting viral replication by 90%)” value turned out to be 74.1 µM. In addition, in the data set on Ebola virus [6], the EC50 was under 0.32 µM.
As to `Nc1ncnc2c1ncn2C1=C[C@H](CO)[C@@H](O)[C@H]1O` [“D”-Isoneplanocin, (1R,2S,5R)-3-(6-Amino-9H-purin-9-yl)-5-(hydroxymethyl)cyclopent-3-ene-1,2-diol], the CC50 is over 100 µM in “in vitro [7]”, over 100 µM in the data set “in vitro [9]” and 1.3 µM in the data set “in vitro [10]”. The EC50 in the data set with Ebola (Zaire) was 0.38 µM; with NOV it was 0.784 µM; with HBV (Hepatitis B virus), 7.2 µM; in the data set with Dengue [8], 1.5 µM; in the data set with Dengue [8] (Dengue virus, Vero 76), 1.1 µM; in the data set with Measles, under 0.38 µM. The EC50 in the data set on HCMV is 0.11 µM; in the data set with Vaccinia [11] (Orthopoxvirus vaccinia, HFF), 10.1 µM. Further, the EC90 (commonly the concentration needed for an effect of 90%) with NOV was 8.88 µM; in the data set with HBV (Hepatitis B virus), 35 µM; in the data set with HCMV, over 12 µM; in the data set on Vaccinia [11] (Orthopoxvirus vaccinia, HFF) it was over 300 µM.
In the data set “in vitro [5]”, `Nc1nccc2c1ncn2C1=C[C@@H](CO)[C@H](O)[C@@H]1O` [“L”-3-Deazaisoneplanocin, L-1′,6′-iso-3-deazaneplanocin] registered a CC50 of over 100 µM. Besides, in the data set on Ebola virus [4], the CC50/EC50 was over 313 µM and the “EC90 (IC90; concentration inhibiting viral replication by 90%)” value was under 0.32 µM. Also, the EC50 in the data set on Ebola virus [6] is under 0.32 µM.
With `Nc1ncnc2c1ncn2C1=C[C@@H](CO)[C@H](O)[C@@H]1O` [“L”-Isoneplanocin, (1S,2R,5S)-3-(6-Amino-9H-purin-9-yl)-5-(hydroxymethyl)cyclopent-3-ene-1,2-diol], the CC50 is over 300 µM in “in vitro [7]”, over 300 µM in the data set “in vitro [12]” and 11.4 µM in the data set “in vitro [10]”. Besides, the EC50 was found to be 0.76 µM in the data set with Ebola (Zaire); 11 µM with NOV; 5.7 µM in the data set with Dengue [8]; 6.1 µM with Dengue [8] (Dengue virus, Vero 76); 0.72 µM with Measles; 3.7 µM with HCMV. The results for the EC90 in the data set on NOV and with HCMV were 89 µM and 6.86 µM, respectively. The Antiviral activity entry in the data set with HBV and in the data set with Vaccinia [11] was “inactive” each time.
